Assay results reported in EP4606801A1, “FUSED HETEROCYCLIC COMPOUND AND USE THEREOF” (Chengdu Zenitar Biomedical Technology Co., Ltd., priority 2022, dated 2024).

Key:
[1] = Pharmacokinetic evaluation of compound in Balb/c mice; format: in vivo; details: 1 mg/kg, PO
Description: Sample preparation: About 0.2 mg of the compound was dissolved in 10 µL DMSO, then a sodium chloride injection was added to make a 0.1 mg·mL^-1 solution of the compound for administration.
Three mice were administered the compound intravenously (IV) at a dose of 1 mg·kg^-1, and the other three were administered the compound orally (PO) at the same dose. […] The plasma concentration of the drug was quantitatively analyzed with the LC-MS/MS method, and pharmacokinetic parameters were calculated, including the […] (Cmax), area under the concentration-time curve (AUC(0-t)), half-life (T1/2), clearance (CL), volume of distribution at steady state (Vdss), and bioavailability (F).

breast cancer MDA-MB-436 = test: In-vivo pharmacodynamic study on subcutaneous xenograft tumor model of breast cancer MDA-MB-436; set-up: species or system NOD/SCID mice; details: 100 mg/kg orally once daily
Description: Strain: NOD/SCID; Grade: SPF; Source: Beijing Vitron River Bio-technology Co., Ltd.
The cells were washed 3 times with pre-cooled PBS, centrifuged at 300 g for 10 min, collected, re-suspended in PBS, and counted with a blood cell counting chamber, and the cell concentration was adjusted. After cell collection, the cell suspension was pre-cooled on ice. 100 µL of the cell suspension was administered via subcutaneous injection into the dorsal flank of the mice, and the grouped treatment was started when the tumor volume reached 200-300 mm^3.
General observation: Observation of animals: all live experimental animals to be observed; Observation time: twice a day; Observation items: including but not limited to general performance, behavioral status, eyes, mouth, nose and mouth, ears, hair, stool, urine, genitalia and other toxic symptoms; If abnormalities are observed, provide a detailed description.
Animal assay: all viable experimental animals scheduled for assay; Assay time: All animals were weighed before the modeling for test grouping. After modeling, the mice were weighed once every 2 days, and the weight change of the mice was recorded in real time. Effective criteria: tumor volume (TV), relative tumor volume (RTV) and relative tumor growth rate of subcutaneously implanted tumor model. […] The calculation formula of tumor volume (TV) was: TV (mm^3) = a×b2×0.5, where a and b were the long diameter and short diameter, respectively.
The evaluation index for anti-tumor activity was the relative tumor growth rate T/C (%), and the calculation formula was as follows: T/C(%) = TRTV/CRTV × 100%; [formula]
Where, TRTV is relative tumor volume of the treatment group; CRTV is relative tumor volume of the negative control group. Therapeutic evaluation criteria: T/C (%)> 60 is considered ineffective; T/C (%) ≤ 60, and P < 0.05 (through statistical analysis) is considered effective. Measurement of tumor weight and tumor inhibition rate (%): At the end of the treatment period, the animals were euthanize, tumor masses dissected and isolated, tumors weighed, and photographs took. The tumor inhibition rate (%) was calculated by the formula below: [formula]
All raw data within the facility were collected manually according to the experimental scheme and the relevant guidelines of the research institution, or gathered by using a data acquisition system. Manually collected data can be transcribed into software such as Excel for analysis and reporting. The data from each group were quantitative, and the experimental data for each group of animals in the tables were expressed as mean ± standard deviation (Mean ± SD). In the figures, the experimental data ware described as mean ± standard error of the mean (Mean ± SEM). Statistical analysis, including t-tests and survival analysis, was performed by using the software such as EXCEL and GraphPad Prism.
After 24 days of administration, the tumor-bearing mice were anesthetized and euthanized. The tumor tissues were dissected, weighed, and photographed, and the tumor inhibition rate was calculated.

| Compound | Vdss [1] [L/kg] | AUC(0-t) ([1]; male, mouse, plasma) [ng·h/mL] | Cmax ([1]; male, mouse, plasma) [ng/mL] | half-life ([1]; male, mouse, plasma) [h] | RTV (breast cancer MDA-MB-436; 24 days) | Tumor inhibition rate (%) (breast cancer MDA-MB-436; 24 days) | Tumor volume T/C% (breast cancer MDA-MB-436; 24 days) [%] | Tumor weight (g) X±SD (breast cancer MDA-MB-436; 24 days) [g] | Body weight (g) X±SD End (breast cancer MDA-MB-436; End, 24 days) [g] | Tumor volume (mm^3) X±SD End (breast cancer MDA-MB-436; End, 24 days) [mm^3] | Body weight (g) X±SD Start (breast cancer MDA-MB-436; Start) [g] | Tumor volume (mm^3) X±SD Start (breast cancer MDA-MB-436; Start) [mm^3] |
| --- | --- | --- | --- | --- | --- | --- | --- | --- | --- | --- | --- | --- |
| [2H]C([2H])([2H])NC(=O)c1ccc(C2=CCN(Cc3cnc4cc(CC)c(=O)[nH]c4c3)CC2)c(C)n1 [Compound 8, 1'-((7-ethyl-6-oxo-5,6-dihydro-1,5-naphthyridin-3-yl)methyl)-2-methyl-N-(methyl-d3)-1',2',3', 6'-tetrahydro-[3,4'-bipyridine]-6-carboxamide] | 0.14 | 42300 | 5010 | 4.1 |  |  |  |  |  |  |  |  |
| O=C(c1cc(Cc2n[nH]c(=O)c3ccccc23)ccc1F)N1CCN(C(=O)C2CC2)CC1 [Olaparib, reference compound] |  |  |  |  | 2.2 | 62.19 | 33.4 | 0.82 ± 0.39 | 21.7 ± 1.4 | 551.5±343.1 | 21.9 ± 1.1 | 250.7±70.0 |
